Holding throughout (format): cell-based
One test addresses T1, mouse FP receptor (Mus musculus, UniProt P43117).
T1 construct: expressed in transfected cells; host or cells: CHO cells (FP-CHO)
Put plainly: Measurement of FP agonist activity (intracellular calcium concentration) in FP-CHO cells. Conditions: for EC50: FP-CHO cells, intracellular calcium concentration, read-out: Agonist activity on various prostanoid receptors: EC50 value (nmol/L) FP. An excerpt:
(§1) (1-1) Measurement of Agonist Activity on Various Mouse Prostanoid Receptors
(§2) With using CHO cells (FP-CHO, EP1-CHO and IP-CHO, respectively) in which various mouse prostanoid receptors were forcibly expressed, respectively, agonist activity of test compounds on various prostanoid receptors was studied employing an intracellular calcium concentration regarding FP and EP1, and an intracellular cyclic AMP (hereinafter, abbreviated as cAMP) production amount regarding IP, as an index.
(§3) The test compound was dissolved with dimethyl sulfoxide (DMSO) to prepare a 10 mmol/L solution. Regarding the prepared 10 mmol/L solution, upon use, the 10 mmol/L solution was thawed; step wisely-diluted using DMSO; and diluted with a buffer solution for measurement or a buffer solution for measurement 2, which was subjected to an experiment.
(§4) Cells forcibly expressing various mouse prostanoid receptors were standing-cultured at 37° C. in the presence of 5% CO2 with using an α-MEM medium (Sigma) (for culturing FP-CHO and EP1-CHO) containing inactivated (56° C., 30 minutes) 9.8 vol % dialysed-FBS (Invitrogen) and penicillin-streptomycin-glutamine (GIBCO-BRL), or nucleic acid-containing α-MEM (Sigma) (for culturing IP-CHO) containing inactivated (56° C., 30 minutes) 9.8 vol % dialysed-FBS (Invitrogen) and penicillin-streptomycin glutamine (Invitrogen). Subculturing was performed by the following method.
(§5) After collecting cells into a centrifuging tube, cells were centrifuged at 120 g for 3 minutes at room temperature and the supernatant was removed. Cells were suspended in a suitable amount of a medium, and seeded in a culturing flask.
(§6) (1-2) Measurement of FP and EP1 Agonist Activity (Measurement of Intracellular Calcium Concentration)
(§7) Regarding FP-CHO and EP1-CHO, by the same method as that of subculturing, cells were peeled and suspended. Before two days from measurement, cells were seeded at a density of 1.0×10^4 cells/well into a 96-well UV plate, and standing-cultured at 37° C. in the presence of 5% CO2. […] To each well, 100 μL of a medium containing 5 μmol/L fura 2-AM (DOJINDO), 2.5 mmol/L Probenecid (Sigma), 20 μmol/L indometacin (Sigma) and 10 mmol/L HEPES (Invitrogen) was added, and cells were incubated for about 60 minutes in a CO2 incubator. After completion of the incubation, the medium was removed, and cells were washed with a buffer solution for measurement (Hank's balanced salt solution (Nissui Pharmaceutical Co., Ltd., 9.8 g of the present product was dissolved in 1 L distilled water) containing 0.1 or 1 w/v % bovine serum albumin, 2 μmol/L indometacin, 2.5 mmol/L Probenecid and 10 mmol/L HEPES-NaOH (pH 7.4)) twice. To each well, 120 μL of a buffer solution for measurement was added; and cells were incubated in a CO2 incubator for 30 minutes; and then cells were subjected to an experiment.
(§8) The 96-well UV plate was set in a fluorescent spectral photometer (FDSS-3000, Hamamatsu Photonics K.K.), and an intracellular calcium concentration was measured. To perform a reaction, 30 μL of a buffered solution for measurement containing an agonist at a variety of concentrations was added. Measurement of an intracellular calcium concentration was performed by irradiating cells with excited light of 340 nm and 380 nm alternately, with measuring a fluorescent intensity at 500 nm, and obtaining a fluorescent intensity ratio of 2-wavelength excitation.
(§9) With using measured values obtained from the above method, an EC50 value as an index of agonist activity of the compound of the present invention on mouse FP, mouse EP1 and mouse IP receptors was calculated.
(Calcium assays in cells follow changes in intracellular calcium, usually with a dye or a luminescent sensor.)

For a further test, the target named is T2, mouse EP1 receptor (Mus musculus, UniProt P35375).
T2 construct: expressed in transfected cells; host or cells: CHO cells (EP1-CHO)
T2 sequence (P35375 1-405): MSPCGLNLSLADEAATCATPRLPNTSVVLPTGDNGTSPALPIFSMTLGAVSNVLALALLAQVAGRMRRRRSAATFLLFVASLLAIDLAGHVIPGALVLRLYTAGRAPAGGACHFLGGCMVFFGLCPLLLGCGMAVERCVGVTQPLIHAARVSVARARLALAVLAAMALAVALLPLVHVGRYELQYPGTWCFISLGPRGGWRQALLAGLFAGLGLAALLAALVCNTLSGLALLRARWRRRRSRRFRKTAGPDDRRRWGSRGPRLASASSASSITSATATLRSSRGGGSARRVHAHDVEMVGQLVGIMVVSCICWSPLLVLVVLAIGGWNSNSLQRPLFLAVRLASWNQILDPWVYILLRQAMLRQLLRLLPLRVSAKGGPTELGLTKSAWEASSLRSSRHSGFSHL
Put plainly: Measurement of EP1 agonist activity (intracellular calcium concentration) in EP1-CHO cells. Conditions: for EC50: EP1-CHO cells, intracellular calcium concentration, read-out: Agonist activity on various prostanoid receptors: EC50 value (nmol/L) EP1.
Description: as §1, §2, §3, §4, §5, §6, §7, §8, §9

The next test has as its target T3, mouse IP receptor (Mus musculus, UniProt P43252).
T3 construct: expressed in transfected cells; host or cells: CHO cells (IP-CHO)
Briefly: Measurement of IP agonist activity (cAMP concentration) in IP-CHO cells. The note with it: for EC50: IP-CHO cells, intracellular cAMP production amount, read-out: Agonist activity on various prostanoid receptors: EC50 value (nmol/L) IP.
Description: as §1, §2, §3, §4, §5
(1-3) Measurement of IP Agonist Activity (Measurement of cAMP Concentration)
Cells were suspended in a suitable amount of a buffer solution for measurement 1 (MEM medium (Invitrogen) containing 0.1 w/v % bovine serum albumin (Sigma) and 2 μmol/L diclofenac (Sigma)), and centrifuged at room temperature for 3 minutes at 500 g, and the supernatant was removed. Cells were suspended in a buffer solution for measurement 2 (MEM medium (Invitrogen) containing 0.1 w/v % bovine serum albumin (Sigma), 2 μmol/L diclofenac (Sigma) and 1 mmol/L 3-isobutyl-1-methylxanthine), and each 25 μL of the suspension was dispensed at a density of 5.0×10^4 cells/well into a 96-well ½ area plate. A buffer solution for measurement 2 (25 μL) containing an agonist at a variety of concentrations was added to perform a reaction at room temperature for 30 minutes. Measurement of a cAMP concentration was performed with using the cAMP HTRF HiRange kit (CIS bio International). According to the two step protocol of the kit manual, each 25 μL of cAMP-D2 and cryptase diluted with a lysis buffer were added, followed by incubation at room temperature for 1 hour. After incubation for 1 hour, time resolved fluorescence at 620 nm and 660 nm in case of beging excited at 340 nm was measured using Analyst GT (Molecular Device), and a ratio (TRF ratio) was obtained, by which a cAMP concentration was calculated from a calibration line.
as §9

Molecules are shown by their SMILES.

T1 sequence (P43117 whole entry): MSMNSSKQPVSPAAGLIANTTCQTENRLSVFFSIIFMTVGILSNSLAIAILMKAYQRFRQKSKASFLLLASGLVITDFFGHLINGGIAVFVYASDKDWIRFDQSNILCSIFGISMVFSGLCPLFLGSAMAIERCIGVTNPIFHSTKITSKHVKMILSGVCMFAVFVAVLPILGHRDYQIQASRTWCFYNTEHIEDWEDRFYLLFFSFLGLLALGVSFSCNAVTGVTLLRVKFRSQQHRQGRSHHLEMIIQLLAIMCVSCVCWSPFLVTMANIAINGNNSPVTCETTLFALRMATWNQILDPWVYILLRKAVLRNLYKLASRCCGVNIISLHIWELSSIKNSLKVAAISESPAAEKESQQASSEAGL
T3 sequence (P43252 whole entry): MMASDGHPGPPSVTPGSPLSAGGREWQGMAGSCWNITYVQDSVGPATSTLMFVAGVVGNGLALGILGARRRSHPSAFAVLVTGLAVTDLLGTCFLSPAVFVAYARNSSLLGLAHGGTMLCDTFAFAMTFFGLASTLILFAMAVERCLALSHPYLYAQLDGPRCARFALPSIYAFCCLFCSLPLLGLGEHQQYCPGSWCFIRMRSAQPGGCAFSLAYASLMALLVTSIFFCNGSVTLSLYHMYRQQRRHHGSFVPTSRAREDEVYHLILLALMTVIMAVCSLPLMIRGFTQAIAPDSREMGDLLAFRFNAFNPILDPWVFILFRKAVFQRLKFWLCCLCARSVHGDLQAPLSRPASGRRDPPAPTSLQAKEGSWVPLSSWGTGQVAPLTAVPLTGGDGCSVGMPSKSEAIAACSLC

`O=C(O)CCC[C@H]1CC[C@@H]2[C@@H](/C=C/[C@@H](O)COc3ccccc3)[C@H](O)C[C@@H]2O1` [Comparative Compound A, reference compound]: the EC50 was determined as 1.1 nmol/L at mouse FP receptor, 3 nmol/L on mouse EP1 receptor and 710 nmol/L on mouse IP receptor. Moreover, the “agonist activity on an FP receptor” value at mouse FP receptor (in words, summary of Table 1) is listed as “has agonist activity”. For the same molecule, the “agonist activity on an EP1 receptor” value on mouse EP1 receptor (in words, summary of Table 1) is reported as “has agonist activity”. The “agonist activity on an IP receptor” value at mouse IP receptor (in words, summary of Table 1) is “has agonist activity”.
`O=C(O)CCC[C@H]1CC[C@@H]2[C@@H](CC[C@@H](O)COc3cccc(C(F)(F)F)c3)[C@H](O)C[C@@H]2OC1` [Example 108 (13), 4-[(3S,5aR,6R,7R,8aS)-7-hydroxy-6-{(3R)-3-hydroxy-4-[3-(trifluoromethyl)phenoxy]butyl}octahydro-2H-cyclopenta[b]oxepin-3-yl]butanoic acid]: the results for the EC50 at mouse FP receptor, on mouse EP1 receptor and at mouse IP receptor were 9.7 nmol/L, more than 10000 nmol/L and more than 10000 nmol/L, respectively.
`O=C(O)CCC[C@H]1CC[C@@H]2[C@@H](COC/C=C/c3ccccc3)[C@H](O)C[C@@H]2OC1` [Example 110, 4-[(3S,5aR,6S,7R,8aS)-7-hydroxy-6-({[(2E)-3-phenyl-2-propen-1-yl]oxy}methyl)octahydro-2H-cyclopenta[b]oxepin-3-yl]butanoic acid]: the EC50 on mouse FP receptor was 707 nmol/L; on mouse EP1 receptor, more than 10000 nmol/L; at mouse IP receptor it was more than 10000 nmol/L.
On to `O=C(O)CCC[C@H]1CC[C@@H]2[C@@H](CCOCCc3ccccc3)[C@H](O)C[C@@H]2OC1` [Example 115, 4-{(3S,5aR,6R,7R,8aS)-7-hydroxy-6-[2-(2-phenylethoxy)ethyl]octahydro-2H-cyclopenta[b]oxepin-3-yl}butanoic acid], for which the EC50 on mouse FP receptor was 509 nmol/L; on mouse EP1 receptor, more than 10000 nmol/L; at mouse IP receptor, more than 10000 nmol/L.
As for `O=C(O)CCC[C@H]1CC[C@@H]2[C@@H](C#CC(O)CCc3ccccc3)[C@H](O)C[C@@H]2OC1` (stereo partly drawn) [Example 119, 4-[(3S,5aR,6S,7R,8aS)-7-hydroxy-6-(3-hydroxy-5-phenyl-1-pentyn-1-yl)octahydro-2H-cyclopenta[b]oxepin-3-yl]butanoic acid], the values for the EC50 on mouse FP receptor, on mouse EP1 receptor and on mouse IP receptor were 50.8 nmol/L, more than 10000 nmol/L and more than 10000 nmol/L, respectively.
Consider `O=C(O)CCC[C@H]1CC[C@@H]2[C@@H](/C=C/C(F)COc3ccccc3)[C@H](O)C[C@@H]2OC1` (stereo partly drawn) [Example 122, 4-{(3S,5aR,6R,7R,8aS)-6-[(1E)-3-fluoro-4-phenoxy-1-buten-1-yl]-7-hydroxyoctahydro-2H-cyclopenta[b]oxepin-3-yl}butanoic acid], for which the EC50 was 9.8 nmol/L on mouse FP receptor, 9270 nmol/L on mouse EP1 receptor and more than 10000 nmol/L at mouse IP receptor.
With `O=C(O)CCC[C@H]1CC[C@@H]2[C@@H](C(F)/C=C/COc3ccccc3)[C@H](O)C[C@@H]2OC1` (stereo partly drawn) [Example 123, 4-{(3S,5aR,6R,7R,8aS)-6-[(2E)-1-fluoro-4-phenoxy-2-buten-1-yl]-7-hydroxyoctahydro-2H-cyclopenta[b]oxepin-3-yl}butanoic acid], the EC50 was 99.2 nmol/L at mouse FP receptor, more than 10000 nmol/L on mouse EP1 receptor and more than 10000 nmol/L on mouse IP receptor.
Consider `O=C(O)CCC[C@H]1CC[C@@H]2[C@@H](/C=C/C(O)COCc3ccccc3)[C@H](O)C[C@@H]2OC1` (stereo partly drawn) [Example 132 (3), 4-{(3S,5aR,6R,7R,8aS)-6-[(1E)-4-(benzyloxy)-3-hydroxy-1-buten-1-yl]-7-hydroxyoctahydro-2H-cyclopenta[b]oxepin-3-yl}butanoic acid], for which the EC50 on mouse FP receptor is 114 nmol/L; on mouse EP1 receptor, more than 10000 nmol/L; at mouse IP receptor, more than 10000 nmol/L.
For `O=C(O)CCC[C@H]1CC[C@@H]2[C@@H](/C=C/C(O)CCC3CCCC3)[C@H](O)C[C@@H]2OC1` (stereo partly drawn) [Example 132 (7), 4-{(3S,5aR,6R,7R,8aS)-6-[(1E)-5-cyclopentyl-3-hydroxy-1-penten-1-yl]-7-hydroxyoctahydro-2H-cyclopenta[b]oxepin-3-yl}butanoic acid], the values for the EC50 at mouse FP receptor, on mouse EP1 receptor and on mouse IP receptor were 21.1 nmol/L, more than 10000 nmol/L and more than 10000 nmol/L, respectively.
As for `O=C(O)CCC[C@H]1CC[C@H]2[C@H](CC(F)(F)[C@@H]2/C=C/C(O)CCc2ccccc2)OC1` (stereo partly drawn) [Example 139 (2), 4-{(3S,5aR,6R,8aS)-7,7-difluoro-6-[(1E)-3-hydroxy-5-phenyl-1-penten-1-yl]octahydro-2H-cyclopenta[b]oxepin-3-yl}butanoic acid], the EC50 at mouse FP receptor is 39 nmol/L; on mouse EP1 receptor it was more than 10000 nmol/L; on mouse IP receptor, more than 10000 nmol/L.
Regarding `O=C(O)CCC[C@H]1CC[C@@H]2[C@@H](/C=C/C(F)(F)CCc3ccccc3)[C@H](O)C[C@@H]2OC1` [Example 141 (1), 4-{(3S,5aR,6R,7R,8aS)-6-[(1E)-3,3-difluoro-5-phenyl-1-penten-1-yl]-7-hydroxyoctahydro-2H-cyclopenta[b]oxepin-3-yl}butanoic acid], the EC50 at mouse FP receptor is 4.6 nmol/L; at mouse EP1 receptor, more than 10000 nmol/L; at mouse IP receptor, more than 10000 nmol/L.
Regarding `CC(C)=CCCCC(F)(F)/C=C/[C@@H]1[C@H]2CC[C@H](CCCC(=O)O)CO[C@H]2C[C@H]1O` [Example 141 (5), 4-{(3S,5aR,6R,7R,8aS)-6-[(1E)-3,3-difluoro-8-methyl-1,7-nonadien-1-yl]-7-hydroxyoctahydro-2H-cyclopenta[b]oxepin-3-yl}butanoic acid], the EC50 on mouse FP receptor was 39.1 nmol/L; at mouse EP1 receptor it was more than 10000 nmol/L; on mouse IP receptor, more than 10000 nmol/L.

The values are drawn from patent publication US9029574B2, “Bicyclic compound and use thereof for medical purposes” (Ono Pharmaceutical Co., Ltd., priority 2011, dated 2015).
